Series [1] can be described thus: Fattening trial in early-weaned piglets with supplemented feed (4 weeks). As to conditions: 28 days; for Zuwachsindex (%): 100 ppm of each active in feed; for Zuwachsindex (%) / Ausnutzungsindex (%): control = 100,0; for Ausnutzungsindex (%), difference from control (in brackets) / Ausnutzungsindex (%) / Futtermittel-Ausnutzung, x̄: 100 ppm of each active; for Futtermittel-Ausnutzung, x̄: feed consumption per unit of gain, control 2,0. Format: in vivo, Ferkel. The text has this:
Frühabgesetzte Ferkel (Mischlinge des weißen edlen Landschweinsx Landrasse), die innerhalb einer Zeitspanne von 6 Tagen geboren waren, wurden aus der Gebärstation am S. Tage nach dem Absetzen in die Versuchsanlage gebracht. Die Ferkel wurden in Gruppen von je 8 bis 12 Tieren in Boxen untergebracht, die mit Rostböden versehen und durch hölzerne Bodenplatten beheizt waren. Nach 7 Tagen Anpassungszeit wurde der eigentliche Mastversuch begonnen. Über die gesamte Versuchsdauer von 4 Wochen wurde in allen Gruppen das Futtergemishc ? OS 2 für früh abgesetzte Ferkel verfüttert, das durch Zusatz der entsprechenden Prämixe jeweils mit folgenden Wirkstoffen angereichert wurde: • Gruppe I (Kontrollgruppe): Futtergemisch allein ohne Zusatz • Gruppe II: Cyadox, 100 ppm (100 mg pro kg Futtergemisch) • Gruppe III: Roh-Tylo-sin, 100 ppm reine Tylosinbase • Gruppe IV : Cyadox und Roh-Tylosin, je 100 ppm.
Zu Beginn des Versuchs und am Versuchsende (28. Tag) wurden die Tiere individuell gewogen. Der Futterverbrauch pro Gruppe wurde täglich ermittelt und daraus die Futtermittelausnutzung, dh der Futterverbrauch pro Zuwachseinheit, berechnet. Ebenso wurde der Allgemeinzustand der Tiere täglich verfolgt.

The nature of series [2]: Weight gain of pre-fattening pigs on supplemented feed in a herd with bloody diarrhoea (14 days). Format: in vivo, Vormastschweine. As to conditions: 100 ppm of each active in feed; for Gesamtzuwachs x̄ (kg): control 8,95; for Endgewicht x̄ (kg): control 59,43; for Tageszuwachs: control 639; for Zuwachsindex (%): control = 100. The text has this: Die Versuche wurden in einem Schweinemastbetrieb durchgeführt, bei dem ständig bei 5 bis 15 der Vormastschweine (Rasse BU x PC + L) von etwa 50 kg Gewicht, die in Koben zu 10 bis 15 Tieren untergebracht waren, blutige Durchfälle auftraten. Histologisch und mikrobiologisch wurde als Erreger der Durchfallerkrankung Vibrio coli festgestellt.
(§1) Die Versuchstiere wurden in 4 Gruppen aufgeteilt und während der gesamten Versuchsdauer von 14 Tagen mit dem Vormastschweine-Futtergemisch SOL unter folgender Wirkstoffzugabe behandelt: • Gruppe I (Kontrollgruppe): Futtergemisch allein Gruppe II: Phthalazol, 100 ppm • Gruppe III: Cyadox, 100 ppm • Gruppe IV: Cyadox und Phthalazol, je 100 ppm.

Another series relates to Vibrio coli. Nature of the series: Treatment of bloody diarrhoea in pre-fattening pigs via supplemented feed (14 days). Format: in vivo, Vormastschweine.
Excerpt: Die Versuche wurden in einem Schweinemastbetrieb durchgeführt, bei dem ständig bei 5 bis 15 der Vormastschweine (Rasse BU x PC + L) von etwa 50 kg Gewicht, die in Koben zu 10 bis 15 Tieren untergebracht waren, blutige Durchfälle auftraten.
as §1

For series [3] the following is noted: Ratten, p.o.; cited from earlier work.
[4] abbreviates: 100 ppm of each active in feed, 14 days.

The source of these data is patent EP0160115A1, “Growth stimulating food additive for animals” (SPOFA Spojené Podniky Pro Zdravotnickou Vyrobu, priority 1984, dated 1985).

Structures are written as SMILES.

In general, LD50 refers to the dose at which mortality reaches 50%. Consider `N#CCC(=O)NN=Cc1c[n+]([O-])c2ccccc2[n+]1[O-]` [Cyadox, 2-Formylchinoxalin-1,4-dioxy-cyanacetyl-hydrazon], for which, in series [1], the “Zuwachsindex (%)” value is 109,8%; the “Ausnutzungsindex (%), difference from control (in brackets)” value is -0,5%; the “Ausnutzungsindex (%)” value was 99,5%; the “Futtermittel-Ausnutzung, x̄” value is recorded as 1,99. Also, in series [2], the “Gesamtzuwachs x̄ (kg)” value is listed as 10,10 kg, the “Endgewicht x̄ (kg)” value is on record as 57,90 kg, the “Tageszuwachs” value was 721 g and the “Zuwachsindex (%)” value is recorded as 112,8%. Moreover, in the series on Vibrio coli (setting [4]), the “Anzeichen blutiger Durchfälle” value is given as “keine Anzeichen blutiger Durchfälle” and the Heilungsgrad stood at 100. Moreover, in series [3], the LD50 is 15000 mg/kg.

Turning to `O=C(O)c1ccccc1C(=O)Nc1ccc(S(=O)(=O)Nc2nccs2)cc1` [Phthalazol], in series [2], the “Gesamtzuwachs x̄ (kg)” value was 8,99 kg, the “Endgewicht x̄ (kg)” value is listed as 59,61 kg, the “Tageszuwachs” value worked out at 642 g and the “Zuwachsindex (%)” value was 100,5%. For the same compound, the “Schweine notgeschlachtet wegen unbefriedigenden Allgemeinzustands” value with Vibrio coli (at end of trial, group of 20 pigs, 100 ppm) is reported as 5.

For `CC[C@H]1OC(=O)C[C@@H](O)[C@H](C)[C@@H](O[C@@H]2O[C@H](C)[C@@H](O[C@H]3C[C@@](C)(O)[C@@H](O)[C@H](C)O3)[C@H](N(C)C)[C@H]2O)[C@@H](CC=O)C[C@@H](C)C(=O)/C=C/C(C)=C/[C@@H]1CO[C@@H]1O[C@H](C)[C@@H](O)[C@@H](OC)[C@H]1OC` [Tylosin], in series [1], the “Zuwachsindex (%)” value is on record as 125,9%; the “Ausnutzungsindex (%), difference from control (in brackets)” value is -7,8%; the “Ausnutzungsindex (%)” value is 92,2%; the “Futtermittel-Ausnutzung, x̄” value was 1,90.
